Reference: patent publication US5281710A, “Dynemicin analogs: synthesis, methods of preparation and use” (The Scripps Research Institute, priority 1992, dated 1994)

Legend:
U-251 MG glioma cells = assay: Sulforhodamine B cytotoxicity, U-251; assay type: cell-based; conditions: Homo sapiens
Description: (§1) In addition to the screening already discussed, several of the before-described compounds and chimeras were screened against several or all of a panel of ten to twenty-five cancerous cell lines as target cells and seven "normal" cell preparations. This screening utilized a sulforhodamine B cytotoxidity assay as discussed below.
(§2) IC50 values; i.e., the concentration of Compound required to kill one-half of the treated cells, were then calculated.

RPMI-8226 cells = assay: Sulforhodamine B cytotoxicity, RPMI-8226; assay type: cell-based; conditions: Homo sapiens
Description: as §1, §2

[1] = Sulforhodamine B cytotoxicity, HMEC; assay type: cell-based, human; conditions: human, read-out: cell viability
Description: as §1, §2
HMEC Human mammary epithelial cells

[2] = tested on: tumor cells and "normal" cells; assay: Relative activity against tumor cells and normal cells; assay type: cell-based
Description: In contrast, 100 percent of normal human mammary epithelial cells (HMEC) were viable at the same concentration.

[3] = tested on: MOLT-4 (Leukemia) cell line; assay: cells; assay type: cell-based
Procedure, shortened: (§3)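 Compounds and chimeras were screened against a panel of ten to twenty-five cancer cell lines plus seven "normal" cell preparations. Cytotoxicity was measured by sulforhodamine B staining, and IC50 was taken as the compound concentration required to kill one-half of the treated cells.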

M-21 melanoma cells [4] = assay: Sulforhodamine B cytotoxicity, M-21; assay type: cell-based; conditions: Homo sapiens, M21
Description: as §1, §2
UCLA M-21 Institute, and originally obtained from […]

H-358 lung cells = assay: Sulforhodamine B cytotoxicity, H-358; assay type: cell-based; conditions: Homo sapiens, NCI-H358
Description: as §1, §2

H-522 lung cells = assay: Sulforhodamine B cytotoxicity, H-522; assay type: cell-based; conditions: Homo sapiens, NCI-H522
Description: as §1, §2

[5] = tested on: SK-Mel-28, M-14, M-21, Capan-1, Ovcar-3, Ovcar-4, UCLA-P-3, U-87, U-251 and Molt-4 cell lines; assay type: cell-based; conditions: ten tumor cell lines
Description: In other studies, IC50 values were determined for the anti-tumor agents dynemicin A, calicheamicin γ1^I, taxol, vinblastine/vincristine, doxorubicin, actinomycin D and bleomycin sulfate against the SK-Mel-28, M-14, M-21, Capan-1, Ovcar-3, Ovcar-4, UCLA-P-3, U-87, U-251 and Molt-4 cell lines.

U-87 UG astocytoma cells = assay: Sulforhodamine B cytotoxicity, U-87; assay type: cell-based
Description: as §1, §2

[6] = tested on: multiple-drug resistant TCAF-DAX cell line; assay: Cytotoxicity, TCAF-DAX; assay type: cell-based
Description: as §1, §2

[7] = tested on: DNA in Molt-4 leukemia cells; assay: DNA strand breakage in Molt-4 cells (ethidium bromide fluorimetry); assay type: cell-based
Description: In another study, Molt-4 leukemia cells were treated with ethidium bromide, which led to uptake by DNA through intercalcation and consequent fluorescence. Exposure of those cells to Compound 153 (10 μM at 10^7 cells/ml) led to rapid DNA strand breakage as determined by fluorimetry, resulting in 95 percent destruction after four hours at 37° C. […] These observations implicate DNA strand cleavage as the direct cause of cell destruction in these studies.

M-14 melanoma cells = assay: Sulforhodamine B cytotoxicity, M-14; assay type: cell-based; conditions: Homo sapiens, M14
Description: as §1, §2
UCLA M-14 Dr. R. Reisfeld of The Scripps Research

M-21 melanoma cells [8] = assay: Inhibition of [3H]leucine uptake (protein synthesis) in M-21 cells; assay type: cell-based, human; conditions: 72 hours incubation
Description: These determinations were made by standard tissue growth procedures using RPMI tissue culture medium supplemented with 10 percent fetal bovine serum plated at 10^4 cells in 100 μl of medium in 96-well tissue culture plates. The cells were permitted to adhere for 24 hours, and the dilutions of Compound 153 were added in 10 μl volumes and incubated for 72 hours at 37° C. in a humidified atmosphere containing five percent CO2. The plates were then washed three times with tissue culture medium and again incubated for 24 hours, as above. Each well received 1 μCi of ^3 H-labeled substrate, and after an additional 16 hours of incubation, cells were collected on glass fiber filters with a Skatron cell harvester. Finally, the filters were placed in Ecolume scintillation cocktail (ICN, Irvine, Calif.), and radioactivity was measured with a Beckeman scintillation counter. Incorporation of the ^3 H label was calculated as a percentage of untreated controls.

Chemical stability = assay type: physicochemical
[9] = tested on: Mel-7 breast carcinoma cells; assay: Sulforhodamine B cytotoxicity, Mel-7 (breast carcinoma); assay type: cell-based; conditions: Breast carcinoma cell
Description: as §1, §2

[10] = tested on: EMT6 mammary tumor in Balb/c BYJ mice; assay: In vivo EMT6 mammary tumor in Balb/c BYJ mice; parameters: species or system mouse; conditions: 10 mg/kg on days 1, 5 and 9
Description: The data of FIG. 10 illustrate a further in vivo study using compound 153. Here, groups of 6-10 week old, female Balb/c BYJ mice (obtained from The Scripps Research Institute breeding colony, La Jolla, Calif.) (8 per group) were inoculated with 5×10^5 cells of the EMT6 tumor cell line, a mammary tumor. The mice were then treated with normal saline (control) or normal saline containing 10 mg/kg of Compound 153 (study) on days 1, 5 and 9 after the inoculation.

φX174 Form I DNA = assay: φX174 supercoiled DNA cleavage, agarose gel; assay type: biochemical
[11] = tested on: H-322 lung carcinoma cells; assay: Sulforhodamine B cytotoxicity, H-322; assay type: cell-based; conditions: NCI-H322; H-322; read-out: IC50
Description: as §1, §2

SK-Mel-28 melanoma cells = assay: Sulforhodamine B cytotoxicity, SK-Mel-28; assay type: cell-based; conditions: Homo sapiens, SK-MEL-28, SK-Mel-28; read-out: IC50
Procedure, shortened: as §3

O=C(OCCS(=O)(=O)c1ccccc1)N1c2ccc(OCCO)cc2C23OC24CCCC3C#C/C=C\C#CC14 (centres unmarked) [Compound 153]
IC50 (U-251 MG glioma cells): 390 nM | IC50 (RPMI-8226 cells): 7.7 nM | viability at 72 h ([1]; 10^-6 to 10^-7 M): 100% | viability at 72 h, 0.01 µM ([1]; 10^-8 M): 100% | selectivity between normal and cancer cells (qualitative) [2]: relative selectivity for tumor cell lines as opposed to normal, untransformed cells | times more active against tumor cells than against normal cells ([2]; except for the three melanoma cell lines): 10^1 -10^8 times | viability at 0.01 µM ([3]; Homo sapiens, 72 h, 10^-8 M, Molt-4 tumor cells): 20% | relative potency (qualitative) ([3]; Molt-4): highest potency amongst all of the agents assayed against the Molt-4 leukemia cell line | IC50 (M-21 melanoma cells [4]): 1600 nM | IC50 (H-358 lung cells): 200 nM | IC50 (H-522 lung cells): 98 nM | relative potency among agents across cell lines [5]: comparable to most of the other agents against the other cell lines | IC50 (U-87 UG astocytoma cells): 780 nM | IC50 [6]: 1.7 nM | DNA strand breakage (destruction) ([7]; 10 μM at 10^7 cells/ml, four hours at 37° C.): 95% | delay of cell death relative to DNA strand breakage ([7]; 10 μM, Molt-4 cells): two | IC50 (M-14 melanoma cells): 1600 nM | inhibition of [3H]leucine uptake (protein synthesis) (M-21 melanoma cells [8]): severely impair | chemical stability (Chemical stability): decompose cleanly to form phenyl vinyl sulfone and the corresponding free amine enediyne Compound 153a | time remaining intact (Chemical stability; pH 7.0 phosphate buffer (100 mM), 37° C.): ≥ 1.5 h | IC50 [9]: 780 nM | tumor growth of treated tumors [10]: much slower, and almost linear | tumor volume vs control ([10]; day 8): slight difference in the average volume of the tumors, with the study group having a lower tumor burden | control group's average tumor volume relative to study group ([10]; day 20): about seven | DNA cleavage (φX174 Form I DNA; 1.0 mM, 24 hours, acidic pH): no DNA cleavage activity | DNA cleavage (φX174 Form I DNA; 1.0 mM, 24 hours, pH 7.0 and higher): some DNA cleavage activity | DNA cleavage (φX174 Form I DNA; pH 8.5, 24 or 48 hours, 37° C.): strong DNA cleavage activity | IC50 [11]: 390 nM | IC50 (SK-Mel-28 melanoma cells): 3100 nM
